Tested on: P. pastoris
Test: Effects of hydroxyurea on cell growth and antibody productivity in P. pastoris fermentation (Run 01MAY11)
Details: 2.6-2.8 g/L hydroxyurea; for WB Titer (anti-IL-6 antibody): age 90 h, lots T5, T6 and T10

## NC(=O)NO [Hydroxyurea]
After peak cell density at 30-40 hours, FIG. 8
  WCW reached and maintained by hydroxyurea treatment lots (control lots ~400 g/Kg): ~450 g/kg
  WB Titer (anti-IL-6 antibody): 75.0 ± 2.7 Normalized
Listed as hydroxyurea
  WB Titer (anti-IL-6 antibody): 75 Normalized

— patent publication US20160024204A1, “METHODS FOR PRODUCING ANTIBODIES” (BRISTOL-MYERS SQUIBB COMPANY, priority 2013, published 2016)
